± gives the expanded uncertainty stated by the source.
Experiments:
[1] = xn = mol fraction of the nth substance listed; conditions: 101 kPa, Liquid
[2] = refractive index (Na D-line) (dimensionless); xn = mol fraction of the nth substance listed; conditions: 101 kPa, Liquid

CCCCCCCCCC [decane] + COc1ccccc1
x2 = 0
Conditions	mass density, 293.15 K [kg/m3]	mass density, 298.15 K [kg/m3]	mass density, 303.15 K [kg/m3]	refractive index, 293.15 K	refractive index, 298.15 K	refractive index, 303.15 K	viscosity, 293.15 K [mPa·s]	viscosity, 298.15 K [mPa·s]	viscosity, 303.15 K [mPa·s]
[1]	729.91 ± 0.8	726.16 ± 0.8	722.36 ± 0.81	–	–	–	0.9169 ± 0.016	0.8512 ± 0.015	0.7898 ± 0.014
[2]	–	–	–	1.4148 ± 0.001	1.4118 ± 0.001	1.4089 ± 0.001	–	–	–

COc1ccccc1 [anisole] + CCCCCCC
Conditions	mass density, 293.15 K [kg/m3]	mass density, 298.15 K [kg/m3]	mass density, 303.15 K [kg/m3]	refractive index, 293.15 K	refractive index, 298.15 K	refractive index, 303.15 K	viscosity, 293.15 K [mPa·s]	viscosity, 298.15 K [mPa·s]	viscosity, 303.15 K [mPa·s]
[1], x1 = 0.1002	707.25 ± 0.83	702.96 ± 0.84	698.59 ± 0.85	–	–	–	0.4315 ± 0.0084	0.4121 ± 0.0081	0.3918 ± 0.0078
[1], x1 = 0.2002	731.96 ± 0.8	727.61 ± 0.8	723.18 ± 0.81	–	–	–	0.4541 ± 0.0087	0.434 ± 0.0084	0.4135 ± 0.0081
[1], x1 = 0.2987	757.78 ± 0.76	753.37 ± 0.76	748.88 ± 0.77	–	–	–	0.4775 ± 0.009	0.4581 ± 0.0087	0.4356 ± 0.0084
[1], x1 = 0.3994	785.83 ± 0.72	781.36 ± 0.72	776.8 ± 0.73	–	–	–	0.5184 ± 0.0097	0.4896 ± 0.0092	0.4639 ± 0.0088
[1], x1 = 0.4996	815.43 ± 0.68	810.9 ± 0.68	806.29 ± 0.69	–	–	–	0.5675 ± 0.01	0.5347 ± 0.0099	0.5064 ± 0.0095
[1], x1 = 0.5958	845.62 ± 0.64	841.04 ± 0.65	836.39 ± 0.65	–	–	–	0.6285 ± 0.011	0.5911 ± 0.011	0.5603 ± 0.01
[1], x1 = 0.6993	880.28 ± 0.61	875.65 ± 0.61	870.94 ± 0.61	–	–	–	0.7129 ± 0.013	0.6692 ± 0.012	0.6322 ± 0.011
[1], x1 = 0.7981	915.67 ± 0.57	911.07 ± 0.58	906.4 ± 0.58	–	–	–	0.8105 ± 0.014	0.7613 ± 0.013	0.7161 ± 0.013
[1], x1 = 0.8991	953.76 ± 0.55	949.15 ± 0.55	944.46 ± 0.56	–	–	–	0.9337 ± 0.016	0.8767 ± 0.015	0.8197 ± 0.014
[1], x1 = 1	993.81 ± 0.53	989.15 ± 0.53	984.42 ± 0.53	–	–	–	1.085 ± 0.018	1.017 ± 0.017	0.9285 ± 0.016
[2], x1 = 0.1007	–	–	–	1.3975 ± 0.0009	1.3954 ± 0.001	1.3924 ± 0.001	–	–	–
[2], x1 = 0.21	–	–	–	1.4087 ± 0.0009	1.4064 ± 0.001	1.4036 ± 0.001	–	–	–
[2], x1 = 0.31	–	–	–	1.4189 ± 0.001	1.4167 ± 0.001	1.414 ± 0.001	–	–	–
[2], x1 = 0.405	–	–	–	1.4294 ± 0.001	1.4272 ± 0.0009	1.4248 ± 0.0009	–	–	–
[2], x1 = 0.4985	–	–	–	1.4407 ± 0.001	1.4385 ± 0.0009	1.4362 ± 0.0009	–	–	–
[2], x1 = 0.583	–	–	–	1.4516 ± 0.001	1.4495 ± 0.0009	1.4474 ± 0.0009	–	–	–
[2], x1 = 0.6989	–	–	–	1.4683 ± 0.001	1.466 ± 0.0009	1.464 ± 0.0009	–	–	–
[2], x1 = 0.792	–	–	–	1.4826 ± 0.001	1.4802 ± 0.0009	1.4782 ± 0.0009	–	–	–
[2], x1 = 0.8941	–	–	–	1.499 ± 0.001	1.4966 ± 0.0009	1.4947 ± 0.0009	–	–	–
[2], x1 = 1	–	–	–	1.5161 ± 0.0009	1.5141 ± 0.0009	1.5129 ± 0.0009	–	–	–

CCCCCCCC [octane] + COc1ccccc1
x2 = 0
Conditions	mass density, 293.15 K [kg/m3]	mass density, 298.15 K [kg/m3]	mass density, 303.15 K [kg/m3]	refractive index, 293.15 K	refractive index, 298.15 K	refractive index, 303.15 K	viscosity, 293.15 K [mPa·s]	viscosity, 298.15 K [mPa·s]	viscosity, 303.15 K [mPa·s]
[1]	702.61 ± 0.84	698.57 ± 0.85	694.56 ± 0.85	–	–	–	0.5464 ± 0.01	0.5123 ± 0.0096	0.483 ± 0.0091
[2]	–	–	–	1.3965 ± 0.0009	1.3947 ± 0.0009	1.3926 ± 0.0009	–	–	–

CCCCCC [hexane] + COc1ccccc1
x2 = 0
Conditions	mass density, 293.15 K [kg/m3]	mass density, 298.15 K [kg/m3]	mass density, 303.15 K [kg/m3]	refractive index, 293.15 K	refractive index, 298.15 K	refractive index, 303.15 K	viscosity, 293.15 K [mPa·s]	viscosity, 298.15 K [mPa·s]	viscosity, 303.15 K [mPa·s]
[1]	659.5 ± 0.91	654.96 ± 0.92	650.42 ± 0.93	–	–	–	0.3114 ± 0.0066	0.2974 ± 0.0064	0.2838 ± 0.0062
[2]	–	–	–	1.3759 ± 0.001	1.3732 ± 0.001	1.3709 ± 0.0009	–	–	–
